The target of one experiment is MetRS (S. aureus) (Staphylococcus aureus, UniProt Q5HII6). The experiment is described as follows: biochemical. The settings on record: ATP depletion, Kinase-Glo; read-out: H) MetRS (S. aureus) ATP depletion assay using Kinase-Glo with modified cpd dilution method, IC50. On the technique in general: Kinase-Glo reads ATP consumption through a luciferase reaction.
The subject of a further experiment is L. amaz. Nature of the experiment: L. amaz growth inhibition EC50. Type of experiment: cell-based. As to conditions: read-out: F) L. amaz EC50.
Another experiment has as its system T. cruzi. The experiment is described as follows: T. cruzi growth inhibition EC50. Type of experiment: cell-based.
A further experiment concerns the target MetRS (Giardia) (Giardia intestinalis, UniProt A8BY75). Nature of the experiment: biochemical. As to conditions: read-out: D) MetRS (Giardia) aminoacylation assay with modified cpd dilution method IC50.
A further experiment deals with E. faecium (ATCC 51559). The experiment is described as follows: E. faecium (ATCC 51559) MIC/EC50. Type of experiment: cell-based.
The next experiment deals with P. fal (3D37). The experiment is described as follows: P. fal (3D37) growth inhibition EC50. The settings on record: read-out: G) P. fal (3D37) EC50. Type of experiment: cell-based.
A further experiment addresses MetRS (T. brucei) (Trypanosoma brucei brucei, UniProt Q38C91). Nature of the experiment: MetRS (T. brucei) ATP depletion assay using Kinase-Glo. It is filed as biochemical.
The test system of another experiment is T. brucei. The experiment is described as follows: Growth inhibition assay of T. brucei cell cultures (Alamar Blue, 48 h). Type of experiment: cell-based. On the technique in general: Alamar Blue is a resazurin reagent that responds to reducing activity.
Experiment [1] has as its system Giardia intestinalis (ATCC 50580). The experiment is described as follows: Giardia intestinalis (ATCC 50580) growth inhibition EC50. It is filed as cell-based.
Another experiment has as its system S. aureus (ATCC 29213). The experiment is described as follows: S. aureus (ATCC 29213) MIC/EC50. As to conditions: Staphylococcus aureus, ATCC29213; S. aureus ATCC 29213; read-out: I) S. aureus (ATCC 29213) MIC/EC50, MIC. It is filed as cell-based.
The subject of the next experiment is E. faecalis (ATCC 29212). Nature of the experiment: E. faecalis (ATCC 29212) MIC/EC50. It is filed as cell-based.
Experiment [2] has as its system S. aureus MRSA (ATCC 43300). Nature of the experiment: S. aureus MRSA (ATCC 43300) MIC/EC50. Type of experiment: cell-based. As to conditions: Staphylococcus aureus; S. aureus MRSA ATCC 43300; read-out: J) S. aureus MRSA (ATCC 43300) MIC/EC50, MIC.
Setting [3] is: Trypanosoma cruzi; read-out: C) T. cruzi EC50.
Setting [4] is: Trypanosoma brucei; read-out: B) T. brucei EC50.
The mark [5] stands for this setting: Giardia duodenalis, ATCC50580; read-out: E) Giardia intestinalis (ATCC 50580) EC50.
The mark [6] stands for this setting: read-out: E) Giardia intestinalis (ATCC 50580) EC50.

≈ marks a conversion by molar mass, not a printed value. Where “and” joins values, the source holds several entries; their conditions need not be identical. Equal entries are not always repeated. Where two headings read alike, the source gives them in different places.

Chain of MetRS (Giardia) (A8BY75 entry or part of it): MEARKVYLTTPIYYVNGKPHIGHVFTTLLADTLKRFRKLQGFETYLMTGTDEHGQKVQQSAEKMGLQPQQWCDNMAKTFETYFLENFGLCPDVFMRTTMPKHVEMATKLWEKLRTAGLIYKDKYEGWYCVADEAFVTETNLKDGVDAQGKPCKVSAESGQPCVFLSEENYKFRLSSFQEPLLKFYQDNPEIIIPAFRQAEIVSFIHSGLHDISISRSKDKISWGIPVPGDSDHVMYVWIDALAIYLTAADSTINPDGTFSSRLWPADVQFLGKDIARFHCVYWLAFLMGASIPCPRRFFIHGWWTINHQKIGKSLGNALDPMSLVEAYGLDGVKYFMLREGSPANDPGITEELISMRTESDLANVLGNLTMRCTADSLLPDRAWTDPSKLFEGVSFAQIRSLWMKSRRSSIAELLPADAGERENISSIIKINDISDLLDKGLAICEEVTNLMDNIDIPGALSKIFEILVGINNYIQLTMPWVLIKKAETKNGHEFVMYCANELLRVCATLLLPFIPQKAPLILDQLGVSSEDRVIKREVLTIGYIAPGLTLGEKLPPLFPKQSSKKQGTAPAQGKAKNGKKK
Chain of MetRS (S. aureus) (Q5HII6 whole entry): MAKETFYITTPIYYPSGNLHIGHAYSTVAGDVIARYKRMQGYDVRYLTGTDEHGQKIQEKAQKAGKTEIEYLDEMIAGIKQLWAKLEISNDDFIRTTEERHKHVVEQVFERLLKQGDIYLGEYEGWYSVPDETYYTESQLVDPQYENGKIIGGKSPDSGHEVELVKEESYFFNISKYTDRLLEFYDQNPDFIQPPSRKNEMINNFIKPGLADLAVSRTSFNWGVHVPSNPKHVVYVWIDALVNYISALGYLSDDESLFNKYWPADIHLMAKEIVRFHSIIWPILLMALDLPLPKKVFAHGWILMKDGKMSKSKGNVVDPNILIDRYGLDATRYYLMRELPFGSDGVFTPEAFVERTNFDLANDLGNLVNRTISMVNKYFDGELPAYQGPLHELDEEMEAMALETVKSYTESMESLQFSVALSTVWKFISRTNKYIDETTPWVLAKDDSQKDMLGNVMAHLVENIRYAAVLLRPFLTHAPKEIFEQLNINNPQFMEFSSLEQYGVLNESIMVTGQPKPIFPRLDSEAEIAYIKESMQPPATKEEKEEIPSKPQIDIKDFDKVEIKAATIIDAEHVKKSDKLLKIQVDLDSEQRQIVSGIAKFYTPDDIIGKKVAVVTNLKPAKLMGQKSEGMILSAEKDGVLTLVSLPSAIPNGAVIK
Chain of MetRS (T. brucei) (Q38C91 entry or part of it): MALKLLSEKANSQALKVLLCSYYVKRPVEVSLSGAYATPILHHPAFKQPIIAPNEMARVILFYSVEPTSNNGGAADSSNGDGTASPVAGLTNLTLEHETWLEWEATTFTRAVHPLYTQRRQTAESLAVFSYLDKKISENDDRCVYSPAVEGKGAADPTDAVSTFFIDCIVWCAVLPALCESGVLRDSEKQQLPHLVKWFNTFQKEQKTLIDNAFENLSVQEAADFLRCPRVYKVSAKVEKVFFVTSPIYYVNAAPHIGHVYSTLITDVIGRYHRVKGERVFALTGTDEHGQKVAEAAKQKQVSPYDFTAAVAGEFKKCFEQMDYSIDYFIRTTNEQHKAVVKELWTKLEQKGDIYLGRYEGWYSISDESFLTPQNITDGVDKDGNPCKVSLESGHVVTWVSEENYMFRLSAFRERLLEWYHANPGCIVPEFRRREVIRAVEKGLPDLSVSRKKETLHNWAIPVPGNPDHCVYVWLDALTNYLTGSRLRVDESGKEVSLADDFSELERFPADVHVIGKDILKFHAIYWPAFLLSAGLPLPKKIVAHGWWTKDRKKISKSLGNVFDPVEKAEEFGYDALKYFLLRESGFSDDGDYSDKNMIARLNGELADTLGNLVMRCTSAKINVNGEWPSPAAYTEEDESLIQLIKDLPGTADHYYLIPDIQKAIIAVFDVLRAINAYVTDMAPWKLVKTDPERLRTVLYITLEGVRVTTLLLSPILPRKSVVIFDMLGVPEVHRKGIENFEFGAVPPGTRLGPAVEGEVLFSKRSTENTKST

Regarding `Clc1cc(Cl)cc(CNCCCNc2nc3ncccc3[nH]2)c1` [Compound 1575, N1-(3,5-dichlorobenzyl)-N3-(1H-imidazo[4,5-b]pyridin-2-yl)propane-1,3-diamine], the 50% inhibitory concentration (IC50) (as a rule, the concentration at which inhibition is half-maximal) was determined as 35 nM at MetRS (S. aureus), 36 nM on MetRS (Giardia) and 9 nM against MetRS (T. brucei). Also, the concentration giving a half-maximal response (EC50) – broadly, the midpoint of the concentration-response curve – with L. amaz is more than 10000 nM; in the experiment on T. cruzi (setting [3]), 193 nM; in the experiment on P. fal (3D37), 7.01 µM; in the experiment on T. brucei (setting [4]), 9.36 nM; in the experiment with T. brucei (read-out: B) T. brucei EC50), 7.64 nM. Moreover, the “L) E. faecium (ATCC 51559) MIC/EC50, MIC” value in the experiment with E. faecium (ATCC 51559) came out at 0.625 µg/mL.
As for `Fc1ccc2nc(NCCCNCc3cc(Cl)cc(Cl)c3)[nH]c2n1` [Compound 1614, [(3,5-dichlorophenyl)methyl][3-({5-fluoro-3H-imidazo[4,5-b]pyridin-2-yl}amino)propyl]amine], the IC50 came to 37 nM at MetRS (S. aureus), 9 nM at MetRS (Giardia) and 16 nM on MetRS (T. brucei). The EC50 in the experiment on L. amaz was more than 1000 nM; in experiment [1] (setting [5]), 3420 nM; in [1] (setting [6]) it was 1980 nM; with T. cruzi (setting [3]), 39.5 nM; with T. cruzi (read-out: C) T. cruzi EC50), 35.7 nM; with P. fal (3D37) it was 7.71 µM. In the experiment on S. aureus (ATCC 29213), the MIC is 1.25 µg/mL (≈ 3.39 µM). The “L) E. faecium (ATCC 51559) MIC/EC50, MIC” value with E. faecium (ATCC 51559) stood at 1.25 µg/mL. Moreover, the “K) E. faecalis (ATCC 29212) MIC/EC50, MIC” value in the experiment on E. faecalis (ATCC 29212) worked out at 0.625 µg/mL.
Regarding `C[C@@H](CNCc1cc(Cl)cc(Cl)c1)CNc1nc2cccnc2[nH]1` [Compound 1655, (S)-N1-(3,5-dichlorobenzyl)-N3-(1H-imidazo[4,5-b]pyridin-2-yl)-2-methylpropane-1,3-diamine], the IC50 at MetRS (S. aureus) amounted to 171 nM; on MetRS (T. brucei) it was 43 nM. In addition, the EC50 in the experiment on L. amaz was found to be 6740 nM; with T. cruzi (setting [3]), 709 nM; in the experiment with T. brucei (setting [4]), 11.3 nM; in the experiment on T. brucei (read-out: B) T. brucei EC50), 7.97 nM. In addition, the MIC (in the experiment with S. aureus (ATCC 29213); in experiment [2]) was 10 µg/mL (≈ 27.5 µM) each time.
In the case of `C[C@@H](CNCc1cc(Cl)cc(Cl)c1)CNc1nc2nc(F)ccc2[nH]1` [Compound 1673, [(3,5-dichlorophenyl)methyl][(2S)-3-({5-fluoro-3H-imidazo[4,5-b]pyridin-2-yl}amino)-2-methylpropyl]amine], the IC50 at MetRS (S. aureus) was found to be 113 nM; on MetRS (T. brucei), 11 nM. The half-maximal effective concentration (EC50) in the experiment with L. amaz is 7860 nM and 5710 nM and 8280 nM; in the experiment with T. cruzi (setting [3]), 1540 nM. The MIC (in the experiment on S. aureus (ATCC 29213); in experiment [2]) was 5 µg/mL (≈ 13.1 µM) throughout.
As to `O=C(CCOc1ccc(Cl)cc1Cl)NCc1nc2ccccc2[nH]1` [Compound 1683, N-(1H-1,3-benzodiazol-2-ylmethyl)-3-(2,4-dichlorophenoxy)propanamide], the EC50 in the experiment on L. amaz is more than 1000 nM; in experiment [1] (setting [5]), more than 2000 nM; in the experiment with T. cruzi (setting [3]), more than 10000 nM; in the experiment with T. brucei (setting [4]), 8830 nM. The figures for the IC50 on MetRS (Giardia) and against MetRS (T. brucei) were more than 1000 nM and 74 nM, respectively.
Regarding `Fc1ccc2nc(NCCCN[C@@H]3CCOc4c(Cl)cc(Cl)cc43)[nH]c2n1` [Compound 1709, (4R)-6,8-dichloro-N-[3-({5-fluoro-3H-imidazo[4,5-b]pyridin-2-yl}amino)propyl]-3,4-dihydro-2H-1-benzopyran-4-amine], the half-maximal inhibitory concentration (IC50) on MetRS (S. aureus) amounted to 19 nM; at MetRS (Giardia), 2 nM; on MetRS (T. brucei), 8 nM. In addition, the half-maximal effective concentration (EC50) with L. amaz is 1300 nM and 1130 nM; in experiment [1] (setting [5]), 664 nM; in experiment [1] (setting [6]) it was 492 nM; with T. cruzi (setting [3]), more than 4.57 nM; in the experiment on T. cruzi (read-out: C) T. cruzi EC50) it was 5.05 nM. Moreover, the “L) E. faecium (ATCC 51559) MIC/EC50, MIC” value with E. faecium (ATCC 51559) was more than 0.04 µg/mL.
Consider `Fc1ccc2nc(NCCCN[C@H]3CCOc4c(Cl)cc(Cl)cc43)[nH]c2n1` [Compound 1711, (4S)-6,8-dichloro-N-[3-({5-fluoro-3H-imidazo[4,5-b]pyridin-2-yl}amino)propyl]-3,4-dihydro-2H-1-benzopyran-4-amine], for which the IC50 on MetRS (S. aureus) was found to be 368 nM; against MetRS (T. brucei) it was 752 nM. In the experiment with E. faecium (ATCC 51559), the “L) E. faecium (ATCC 51559) MIC/EC50, MIC” value is more than 10 µg/mL. Also, in the experiment with E. faecalis (ATCC 29212), the “K) E. faecalis (ATCC 29212) MIC/EC50, MIC (ug/ml)” value was >10, >10 ug/ml. Also, the EC50 in the experiment on T. brucei (setting [4]) stood at 2820 nM.
Consider `Fc1ccc2nc(NCCCN[C@@H]3CCNc4c(Cl)cc(Cl)cc43)[nH]c2n1` [Compound 1717, (4R)-6,8-dichloro-N-[3-({5-fluoro-3H-imidazo[4,5-b]pyridin-2-yl}amino)propyl]-1,2,3,4-tetrahydroquinolin-4-amine], for which the half-inhibitory concentration (IC50) is 28 nM at MetRS (S. aureus), 3 nM on MetRS (Giardia) and 28 nM at MetRS (T. brucei). Besides, the concentration for a half-maximal effect (EC50) in the experiment with L. amaz is 2850 nM; in [1] (setting [5]), 590 nM; in [1] (setting [6]), 316 nM; in the experiment with T. cruzi (setting [3]), more than 4.57 nM; in the experiment on T. cruzi (read-out: C) T. cruzi EC50) it was 3.72 nM. In addition, the MIC (in the experiment with S. aureus (ATCC 29213); in experiment [2]) was 0.157 µg/mL (≈ 0.384 µM) throughout. Further, in the experiment on E. faecium (ATCC 51559), the “L) E. faecium (ATCC 51559) MIC/EC50, MIC” value was more than 0.04 µg/mL. For the same compound, the “K) E. faecalis (ATCC 29212) MIC/EC50, MIC” value in the experiment on E. faecalis (ATCC 29212) is > 0.04 µg/mL and 0.079 µg/mL.
As for `O=C(/C=C/Oc1ccc(Cl)cc1Cl)NCc1nc2ccccc2[nH]1` [Compound 1729, (2E)-N-(1H-1,3-benzodiazol-2-ylmethyl)-3-(2,4-dichlorophenoxy)prop-2-enamide], the half-maximal inhibitory concentration (IC50) is 27 nM at MetRS (S. aureus) and 17 nM at MetRS (T. brucei). For the same compound, the EC50 in the experiment with L. amaz is more than 1000 nM; in the experiment on T. cruzi (setting [3]) it was more than 5000 nM; in the experiment on T. brucei (setting [4]), 119 nM. In addition, in the experiment with E. faecium (ATCC 51559), the “L) E. faecium (ATCC 51559) MIC/EC50, MIC” value was more than 10 µg/mL.
For the compound `Clc1cc(Cl)cc(Cn2cc(Cc3nc4ccccc4[nH]3)nn2)c1` [Compound 1753, 2-({1-[(3,5-dichlorophenyl)methyl]-1H-1,2,3-triazol-4-yl}methyl)-1H-1,3-benzodiazole], the IC50 at MetRS (S. aureus) was 1100 nM; on MetRS (T. brucei), 73 nM. Further, the concentration giving a half-maximal response (EC50) was more than 5000 nM in the experiment with T. cruzi (setting [3]) and 2330 nM in the experiment with T. brucei (setting [4]). The “L) E. faecium (ATCC 51559) MIC/EC50, MIC” value with E. faecium (ATCC 51559) is more than 10 µg/mL.
For the compound `O=C(Cc1cc(Cl)cc(Cl)c1)N1CCCC(c2nc3nc(F)ccc3[nH]2)C1` (stereo not shown) [Compound 1761, 2-(3,5-dichlorophenyl)-1-(3-(5-fluoro-1H-imidazo[4,5-b]pyridin-2-yl)piperidin-1-yl)ethanone], the half-inhibitory concentration (IC50) on MetRS (S. aureus) was found to be 1910 nM; on MetRS (T. brucei) it was 54 nM. The EC50 in the experiment on T. cruzi (setting [3]) was more than 5000 nM; in the experiment on T. brucei (setting [4]), 996 nM. Moreover, the MIC (in the experiment on S. aureus (ATCC 29213); in [2]) was more than 10 µg/mL throughout.
As for `Clc1cc(Cl)cc(CNCCc2nc3ccc(Cl)cc3[nH]2)c1` [Compound 1767, [2-(6-chloro-1H-1,3-benzodiazol-2-yl)ethyl][(3,5-dichlorophenyl)methyl]amine], the IC50 was more than 1000 nM at MetRS (S. aureus) and 51 nM against MetRS (T. brucei). The figures for the EC50 with T. cruzi (setting [3]) and with T. brucei (setting [4]) were 2930 nM and 627 nM, respectively. The MIC with S. aureus (ATCC 29213) is more than 10 µg/mL; in experiment [2] it was 10 µg/mL (≈ 28.2 µM).
Regarding `O=C(/C=C/Oc1ccc(Cl)cc1Cl)NCc1nc2ccc(F)nc2[nH]1` [Compound 1768, 3-(2,4-Dichloro-phenoxy)-N-(5-fluoro-3H-imidazo[4,5-b]pyridin-2-ylmethyl)-acrylamide], the IC50 at MetRS (S. aureus) is 30 nM; against MetRS (T. brucei), 18 nM. For the same compound, the concentration for a half-maximal effect (EC50) with L. amaz was more than 1000 nM; in the experiment with T. cruzi (setting [3]), 1690 nM; with T. brucei (setting [4]), 70.2 nM. Moreover, the MIC (in the experiment with S. aureus (ATCC 29213); in experiment [2]) was more than 10 µg/mL throughout.
On to `O=c1c(NCc2nc3ccccc3[nH]2)c(NCc2ccc(Cl)cc2Cl)c1=O` [Compound 1769, 3-[(H-Benzoimidazol-2-ylmethyl)-amino]-4-(2,4-dichloro-benzylamino)-cyclobut-3-ene-1,2-dione], for which the IC50 on MetRS (S. aureus) came to 95 nM; against MetRS (T. brucei), 11 nM. In addition, the 50% effective concentration (EC50) in the experiment with T. cruzi (setting [3]) is more than 5000 nM; in the experiment with T. brucei (setting [4]), 1070 nM. In addition, the MIC (with S. aureus (ATCC 29213); in experiment [2]) was more than 10 µg/mL throughout.

Values taken from US10913736B2 (UNIVERSITY OF WASHINGTON, priority 2014, dated 2021).
